Key:
PML NBs [1] = target: T1, PML NBs (Homo sapiens, UniProt P29590); assay: NB formation in CHO-PML xenografts in nude mice; assay type: in vivo; details: treatment of nude mice bearing CHO-PML xenografts
T1 construct: expressed in transfected cells
T1 sequence (P29590 1-641 isoform P29590-9): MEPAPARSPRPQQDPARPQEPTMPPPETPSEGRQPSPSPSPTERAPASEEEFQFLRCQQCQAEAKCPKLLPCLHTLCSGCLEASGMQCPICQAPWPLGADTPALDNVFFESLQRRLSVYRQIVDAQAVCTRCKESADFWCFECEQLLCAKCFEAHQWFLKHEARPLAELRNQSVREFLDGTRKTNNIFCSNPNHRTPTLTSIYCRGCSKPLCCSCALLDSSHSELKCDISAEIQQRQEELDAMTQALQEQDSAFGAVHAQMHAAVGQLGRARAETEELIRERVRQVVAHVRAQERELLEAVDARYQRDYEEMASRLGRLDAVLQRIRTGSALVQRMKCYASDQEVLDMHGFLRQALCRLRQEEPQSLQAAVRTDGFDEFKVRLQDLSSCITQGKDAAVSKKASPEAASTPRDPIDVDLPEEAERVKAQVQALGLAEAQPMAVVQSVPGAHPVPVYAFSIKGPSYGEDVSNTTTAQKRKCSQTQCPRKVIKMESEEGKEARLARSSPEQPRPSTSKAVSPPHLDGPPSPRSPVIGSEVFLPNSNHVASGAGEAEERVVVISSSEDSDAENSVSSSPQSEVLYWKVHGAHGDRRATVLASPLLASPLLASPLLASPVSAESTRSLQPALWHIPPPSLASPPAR
Description: (§1) Mouse experiments were repeated 3 times. Animal handling was done according to the guidelines of institutional animal care committees, using protocols approved by “Comité Régional d'Ethique Expérimentation Animale (CREEA) no 4”. 25 mg/kg Paraquat (SIGMA) was daily intraperitoneally injected in PML/RARA and PML/RARA-S77A leukemic mice^17 (to be fully described elsewhere). In vivo imaging was performed using a Xenogen IVIS100 facility to ensure similar tumor mass pre-treatment. Mice were treated with 150 mg/kg for 1 h before bone marrow cytospins (from FVB/NICO) and […] tumor cryosections (NUDE/SWISS) immuno-histochemistry; CHO-PML xenografts were performed as before^42.
(§2) Disulfide bonds are oxidant-sensitive. […] As ROS status is profoundly altered in cell culture, we examined NBs in vivo in basal conditions and after acute induction of ROS. […] Thus, oxidation-triggered disulfide bonds in PML regulate its partitioning between the nucleoplasm and nuclear matrix associated NBs.
(§3) We next investigated whether oxidants enhance disulfide-bound PML multimerization. […] We thus examined whether paraquat, an acute ROS inducer, would regulate NB formation in vivo, a setting where ROS levels are likely more controlled.

PML = target: T2, PML (Homo sapiens, UniProt P29590); assay: Western-blot analysis under non-reducing conditions of PML-transfected CHO cells (disulfide-linked PML complexes); assay type: cell-based; design: amounts of covalent PML multimers: concentration or dose not given beside the values; details: for amounts of covalent PML multimers: short exposure, CHO cells transiently overexpressing PML; for covalent PML homodimers: transiently PML- or PML3KR-transfected cells, non-reducing conditions; for formation of covalent multimers: pretreatment, transiently PML-transfected CHO cells
T2 construct: expressed in transfected cells; host or cells: CHO (transient)
T2 sequence (P29590 1-641 isoform P29590-9): T1 sequence (P29590 1-641 isoform P29590-9)
Description: (§4) HeLa, MRC5, CHO, COS, SaOS and Pml−/− MEF cells were cultured in 10% Fetal calf serum DMEM medium (Gibco). Plasmid transfections were performed in CHO or COS with Effectene transfection reagent (Qiagen). Stable CHO cell lines, expressing the PML isoform, or its mutants, were obtained by cotransfection of pSG5-PMLΔSIM, pSG5-3K/RΔSIM, pSG5-C212A or pSG5-B1 with the Dsp-Hygro vector; selected for 2 weeks in […] hygromycin-containing media. Clones were selected for similar PML expression levels. PML WT, PML C60A, PMLΔCC and PML 3K/R stable expressing cell lines were described previously^25. MRC5 or SaOS were grown on coverslides and treated with 400 U/ml IFNg for 48 h and IFNa for 24 h to induce PML expression. Primary mouse APL blasts were obtained from serially transplanted APLs^16 and then cultured in RPMI medium, 10% FCS supplemented with IL-3, IL-6 and SCF (Gibco). Infection of immortalized pml−/− MEFs or primary progenitors was performed with retroviruses produced by CaCl2 transfection of Plat-E cells by with the MSCV-PML/RARA retroviral vector^16. Pml−/− or +/+ MEF cells were similarly transduced with MSCV-PML or PML mutants.
(§5) As2O3 (Fluka) treatments were performed at 1 mM or 10 mM for 1 h. H2O2 from SIGMA-Aldrich was performed for 30 min at 0.1, 1 or 10 mM as indicated, Phenylarsine oxide (PAO) was purchased from SIGMA, solubilized at 50 mg/ml in DMSO and used at 0.1 mM, 1 mM or 10 mM for 1 h, CdCl2 from Flucka, was used at a final concentration of 10 mM. Cells were treated with 10 mM Lactacystin (Calbiochem) overnight, and with 50 mg/ml ready-made cycloheximide (SIGMA) as indicated. Pre-treatments with 100 mM N-ethyl maleimide (NEM) (SIGMA) for 30 min were carried out before adding As2O3 or H2O2. TC-FlAsH (FlAs) was from Molecular Probes; cells growing on coverslides were treated with 1 mM for 1 h, washed in PBS before PFA fixation. Dithiarsolan-biotin conjugate (arsenic-biotin) was kindly given by Kenneth L. Kirk^53, solubilized in DMSO to a 5 mM stock solution, and used on cell culture at 10 mM for 1 h.
Cell lysates were resolved on 7%, 3 to 10% gradient or 12% SDS-PAGE gels and transferred onto nitrocellulose membranes. Detection was performed with the chemi-luminescent substrate SuperSignal WestPico (Pearce), using previously described home made mouse and chicken anti-hPML antibodies^15,25, the PML isoform-specific antibodies were characterized previously^29. For analysis under non-reducing conditions, b-Mercapto-Ethanol or DTT was omitted from the standard Laemmli buffer. In situ nuclear matrix was prepared as for immunofluorescence, but finally resuspended in Laemmli buffer. Purifications of 6M Guanidium-HCl denatured (His×6)-tagged proteins were done with Ni-NTA-agarose from Qiagen, as previously^25. The purification of the arsenic-bound proteins were performed from As-biotin treated CHO-PML or transiently pSG5-PML wt or C212A transfected COS cells. Cells were lysed in 2% SDS-containing RIPA with Protease Inhibitor Cocktail (PIC) (Roche Applied Science), denatured at 95° C. for 5 min to release nuclear matrix-associated PML. Streptavidin-agarose (Molecular Probes) was added to the […] lysates for 30 min to 1 h, washed three times in RIPA and arsenic bound proteins were eluted in Laemmli buffer.
Intermolecular disulfide bonds were previously implicated in stabilization of the nuclear matrix. […] We then compared total and nuclear matrix extracts from transiently transfected CHO cells under non-reducing conditions and observed that the matrix fraction was dramatically enriched in covalent PML dimers.

endogenous murine PML = target: T3, endogenous murine PML (Mus musculus, UniProt Q60953); assay: NB formation by endogenous murine PML in bone marrow cells of treated mice; assay type: in vivo; details: normal bone marrow cells of treated mice
T3 construct: from tissue; host or cells: mouse bone marrow cells (cytospins, FVB/NICO mice)
T3 sequence (Q60953 1-885): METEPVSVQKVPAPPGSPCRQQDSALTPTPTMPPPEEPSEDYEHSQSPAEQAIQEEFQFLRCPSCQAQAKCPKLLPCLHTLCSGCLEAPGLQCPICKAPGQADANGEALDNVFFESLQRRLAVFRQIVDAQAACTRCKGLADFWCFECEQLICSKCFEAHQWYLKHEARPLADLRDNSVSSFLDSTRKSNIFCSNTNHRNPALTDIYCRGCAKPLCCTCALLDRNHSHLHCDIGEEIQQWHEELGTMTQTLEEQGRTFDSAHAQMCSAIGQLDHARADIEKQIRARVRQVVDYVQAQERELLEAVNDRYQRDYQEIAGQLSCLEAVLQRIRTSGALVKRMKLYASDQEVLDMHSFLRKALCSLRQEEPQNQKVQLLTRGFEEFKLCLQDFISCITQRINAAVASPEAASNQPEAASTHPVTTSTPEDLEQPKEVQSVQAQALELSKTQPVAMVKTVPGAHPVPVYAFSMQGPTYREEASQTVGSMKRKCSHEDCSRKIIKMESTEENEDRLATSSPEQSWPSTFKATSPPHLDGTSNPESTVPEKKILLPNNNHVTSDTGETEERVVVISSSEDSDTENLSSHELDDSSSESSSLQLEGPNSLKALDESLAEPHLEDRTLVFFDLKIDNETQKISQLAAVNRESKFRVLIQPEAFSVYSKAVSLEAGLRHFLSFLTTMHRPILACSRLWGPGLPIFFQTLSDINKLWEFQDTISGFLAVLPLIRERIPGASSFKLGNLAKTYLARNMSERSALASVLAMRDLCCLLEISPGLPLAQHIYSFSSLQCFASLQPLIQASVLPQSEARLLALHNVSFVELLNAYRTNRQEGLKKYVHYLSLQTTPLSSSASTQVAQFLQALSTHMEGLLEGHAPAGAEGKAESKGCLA
Description: as §1, §2, §3

PML NBs [2] = target: T1, PML NBs; assay: PML NBs in cultured cells (CHO-PML), immunofluorescence; assay type: cell-based
Description: as §4, §5
Immunofluorescence, electronic microscopy and antibodies were previously described^15. In situ nuclear matrix preparations were prepared as described^1. Confocal analyses were performed on a LSM510 Meta laser microscope (Carl Zeiss MicroImaging, Inc.) with a plan apochromat 63X N.A.1.4 oil immersion objective and increased resolution images were obtained with deconvolution software (Autodeblur, Image Quant) using blind iterative algorithms.

Row | Structure (SMILES) | NB formation in CHO-PML xenografts (PML NBs [1]) | amounts of covalent PML multimers (PML) | covalent PML homodimers (PML) | NB formation by endogenous murine PML (endogenous murine PML) | NBs in cultured cells with strong oxidants (PML NBs [2]) | formation of covalent multimers (PML) | also measured
1 | O=[As]O[As]=O (centres unmarked) [As2O3] | dramatic increase in NB formation | massively increased | dramatic increase | Enhanced NB formation |  |  | 
2 | [Cl][Cd][Cl] [CdCl2] |  | massively increased |  |  | disrupt NBs |  | 
3 | OO [H2O2] |  | massively increased | dramatic increase |  | disrupt NBs |  | 
4 | CC(=O)N[C@@H](CS)C(=O)O [NAC, N-acetyl cysteine] |  |  |  |  |  | abrogated | basal NB formation (PML NBs [2]; CHO-PML cells cultured for 10 days with the ROS scavenger): lost basal NB formation; NBs after wash-out (PML NBs [2]; CHO-PML cells, 3 day wash-out after 10 days culture): NBs were restored; abundance of the high molecular weight PML forms (PML; pretreatment of CHO cells prior to PML transfection): dramatic decrease
5 | CCN1C(=O)C=CC1=O [NEM, N-ethyl maleimide] |  |  |  |  |  | abrogated | basal PML NBs (PML NBs [2]; untreated cells / CHO-PML cells, 1 hr treatment): disrupted basal PML NBs; As2O3 or H2O2-enhanced homodimer formation (PML; thiol alkylator added with As2O3 or H2O2): abrogated
6 | C[n+]1ccc(-c2cc[n+](C)cc2)cc1 [Paraquat] | dramatic increase in NBs |  |  | Identical results |  |  | NB formation in CHO-PML xenografts (PML NBs [1]; listed as paraquat): dramatic increase in NB formation; NB formation by endogenous murine PML (endogenous murine PML; listed as paraquat): Enhanced NB formation

Source: patent publication US9228998B2, “Drug monitoring methods using the promyelocytic leukemia protein as a redox sensor” (Institut National de la Sante et de la Recherche Medicale …, priority 2010, dated 2016)
